{"source": "ChEMBL document CHEMBL1817596", "about": "“Synthesis of a hypoxia-targeted conjugate of the cardioprotective agent 3',4'-dihydroxyflavonol and evaluation of its ability to reduce ischaemia/reperfusion injury” (Bioorg Med Chem Lett, 2011)", "key": {"[1]": {"assay": "Drug uptake in rat Con8 cells assessed as compound level in supernatant under normoxic condition at 10^-5 M after 3 hrs by HPLC analysis", "type": "ADME, cell-based", "conditions": "con8, 3 h, 10 µM"}, "[2]": {"assay": "Drug uptake in rat Con8 cells assessed as compound level in supernatant under hypoxic condition at 10^-5 M after 3 hrs by HPLC analysis", "type": "ADME, cell-based", "conditions": "con8, 3 h, 10 µM"}, "[3]": {"assay": "Drug uptake in rat Con8 cells assessed as compound level in cell lysate under normoxic condition at 10^-5 M after 3 hrs by HPLC analysis", "type": "ADME, cell-based", "conditions": "con8, 3 h, 10 µM"}, "[4]": {"assay": "Drug uptake in rat Con8 cells assessed as compound level in cell lysate under hypoxic condition at 10^-5 M after 3 hrs by HPLC analysis", "type": "ADME, cell-based", "conditions": "con8, 3 h, 10 µM"}, "Aorta [5]": {"system": "Aorta", "assay": "Vasorelaxant activity in Sprague-Dawley rat thoracic aortic rings assessed as inhibition of phenylephrine-induced contraction at 10^-5 M after 20 mins", "type": "functional, tissue-based"}, "Aorta [6]": {"system": "Aorta", "assay": "Vasorelaxant activity in phenylephrine and KPSS-precontracted Sprague-Dawley rat thoracic aortic rings at 10^-10 to 10^-4 M measured after 20 mins", "type": "functional, tissue-based"}, "Aorta [7]": {"system": "Aorta", "assay": "Antioxidant activity in Sprague-Dawley rat thoracic aortic rings assessed as inhibition of NADPH-activated superoxide formation at 10^-6 to 10^-4 M by lucigenin-enhanced chemiluminescence assay", "type": "functional, tissue-based"}, "Aorta [8]": {"system": "Aorta", "assay": "Inhibition of acetylcholine-induced relaxation Sprague-Dawley rat thoracic aortic rings at 10^-5 M after 20 mins in presence of superoxide generator pyrogallol", "type": "functional", "design": "scale not given: the % may be the effect or the level left"}, "Rattus norvegicus [9]": {"system": "Rattus norvegicus", "assay": "Cardioprotection activity in ischemia/reperfusion-induced Sprague-Dawley rat hindquarters assessed as reduction in circulating LDH level at 8.6 mg/kg, bolus dose administered 5 mins prior to reperfusion measured 30 mins to 3 hrs after reperfusion by UV-VIS spectrophotometry", "type": "functional, organism-based", "design": "dose 8.6 mg/kg"}, "Rattus norvegicus [10]": {"system": "Rattus norvegicus", "assay": "Cardioprotection activity in ischemia/reperfusion-induced in Sprague-Dawley rat hindquarters assessed as reduction in MPO level at 8.6 mg/kg, bolus dose administered 5 mins prior to reperfusion by spectrophotometry relative to control", "type": "functional, organism-based", "design": "dose 8.6 mg/kg"}, "Rattus norvegicus [11]": {"system": "Rattus norvegicus", "assay": "Cardioprotection activity in ischemia/reperfusion-induced Sprague-Dawley rat hindquarters assessed as reduction in circulating LDH level at 5 mg/kg, bolus dose administered 5 mins prior to reperfusion measured 2 hrs after reperfusion by UV-VIS spectrophotometry", "type": "functional, organism-based", "design": "dose 5 mg/kg"}, "Rattus norvegicus [12]": {"system": "Rattus norvegicus", "assay": "Cardioprotection activity in ischemia/reperfusion-induced in Sprague-Dawley rat hindquarters assessed as reduction in MPO level at 5 mg/kg, bolus dose administered 5 mins prior to reperfusion by spectrophotometric analysis relative to control", "type": "functional, organism-based", "design": "dose 5 mg/kg"}, "Rattus norvegicus [13]": {"system": "Rattus norvegicus", "assay": "Cardioprotection activity in ischemia/reperfusion-induced Sprague-Dawley rat hindquarters assessed as reduction in circulating LDH level at 5 mg/kg, bolus dose administered 5 mins prior to reperfusion measured 3 hrs after reperfusion by UV-VIS spectrophotometry", "type": "functional, organism-based", "design": "dose 5 mg/kg"}}, "note": "Calls of active or inactive are those of the source. The rule behind the calls is not given here."}
{"smiles": "O=c1c(O)c(-c2ccc(O)c(O)c2)oc2ccc(-n3cc(Cn4ccnc4[N+](=O)[O-])nn3)cc12", "values": [{"measurement": "Drug uptake", "setting": "[1]", "result": "Active"}, {"measurement": "Drug uptake", "setting": "[2]", "result": "Active"}, {"measurement": "Drug uptake", "setting": "[3]", "result": "Active"}, {"measurement": "Drug uptake", "setting": "[4]", "result": "Active"}, {"measurement": "Activity", "setting": "Aorta [5]", "result": "inactive"}, {"measurement": "Activity", "setting": "Aorta [6]", "result": "inactive"}, {"measurement": "Activity", "setting": "Aorta [7]", "result": "Active"}, {"measurement": "Activity", "setting": "Aorta [8]", "result": 50, "unit": "%"}, {"measurement": "Activity", "setting": "Rattus norvegicus [9]", "result": "Active"}, {"measurement": "Activity", "setting": "Rattus norvegicus [10]", "result": "Active"}]}
{"smiles": "O=c1c(O)c(-c2ccc(O)c(O)c2)oc2ccccc12", "values": [{"measurement": "Drug uptake", "setting": "[1]", "result": "Active"}, {"measurement": "Drug uptake", "setting": "[2]", "result": "Active"}, {"measurement": "Drug uptake", "setting": "[3]", "result": "Active"}, {"measurement": "Drug uptake", "setting": "[4]", "result": "Active"}, {"measurement": "Activity", "setting": "Aorta [5]", "result": "Active"}, {"measurement": "EC50", "setting": "Aorta [6]", "result": 4.68, "unit": "µM"}, {"measurement": "Activity", "setting": "Rattus norvegicus [11]", "result": "Active"}, {"measurement": "Activity", "setting": "Rattus norvegicus [12]", "result": "inactive"}, {"measurement": "Activity", "setting": "Rattus norvegicus [13]", "result": "Active"}]}
